In US10172868B2, “Substituted quinazolines for inhibiting kinase activity” (NeuPharma, Inc., priority 2013, dated 2019):

Key:
EGFR (ErbB1) = EGFR (ErbB1) (Homo sapiens (Human), UniProt P00533); assay: Z'-LYTE kinase inhibition assay, EGFR; format: biochemical; settings: for inhibition at 0.041 µM: read-out: % inhibition against EGFR (Compound at 0.041 μM); for IC50: read-out: IC50 against EGFR; for inhibition at 1 µM: read-out: % inhibition against EGFR (Compound at 1 μM)
Procedure, shortened: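 Z'-LYTE FRET assay run with 1.1-5.25 ng EGFR and 2 μM peptide substrate in 50 mM HEPES pH 7.5, 10 mM MgCl2, 2 mM MnCl2, 1 mM EGTA, 1 mM DTT, 0.01% BRIJ-35, 1% DMSO. Kinase reaction 60 min at room temperature, then 60 min development; IC50 from 10-point 3-fold titrations.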

H1975 cells = assay: Inhibition of cancer cell growth, MTT assay, H1975; settings: Homo sapiens, NCI-H1975, 72 h, read-out: IC50 in H1975 cells
A431 cells = assay: cells; settings: Homo sapiens, A-431, 72 h, read-out: IC50 in A431 cells
Description: (§1) Taxol (as a positive control. Sigma) and compounds were dissolved in DMSO (Sigma), and the final concentration of DMSO in the medium was 1%. Tumor cells were plated in 96-well plates at densities of about 4000 cells/well of a 96-well plate and allowed to adhere/grow for 24 h. They were then treated with various concentrations of drug for 72 h, 3-(4,5-Dimethylthiazol-2-yl)-2,5-diphenyltetrazolium bromide (MTT, Sigma) was used to determine the number of viable cells at the time of compound addition and the number of cells remaining after 72 h compound exposure. The number of cells remaining after 72 h was compared to the number of viable cells at the time of compound addition by measuring the absorbance at 570 nm, allowing for the calculation of growth inhibition.
(§2) All concentrations of compounds were tested in triplicate and controls were averaged over 4 wells. IC50 was calculated by plotting the concentration of compound vs the percentage of inhibition in treated wells using GraphPad Prism 5.
(§3) The scale utilized in Tables 5 is as follows: +++ less than 100 nM; ++ between 100 nM and 500 nM; and + greater than 500 nM.

H3255 cells = assay: Inhibition of cancer cell growth, MTT assay, H3255; settings: Homo sapiens, NCI-H3255, 72 h, read-out: IC50 in H3255 cells
Description: Inhibition of cell growth by compounds was measured using MTT assay (Mosmann, T., Journal of Immunological Methods, 1983, 65, 55-63). Tumor cell lines were purchased from ATCC (American Type Culture Collection, Manassas, Va.). All cell lines were maintained in RPMI 1640 (Hyclone) supplemented with 10% fetal bovine serum (FBS, Hyclone), glutamine (2 mM, Hyclone), and antibiotics (penicillin 100 U/mL and streptomycin 50 μg/mL) at 37° C. in a humidified atmosphere of 5% CO2 in air. Taxol (as a positive control. Sigma) and compounds were dissolved in DMSO (Sigma), and the final concentration of DMSO in the medium was 1%. Tumor cells were plated in 96-well plates at densities of about 4000 cells/well of a 96-well plate and allowed to adhere/grow for 24 h. They were then treated with various concentrations of drug for 72 h, 3-(4,5-Dimethylthiazol-2-yl)-2,5-diphenyltetrazolium bromide (MTT, Sigma) was used to determine the number of viable cells at the time of compound addition and the number of cells remaining after 72 h compound exposure. The number of cells remaining after 72 h was compared to the number of viable cells at the time of compound addition by measuring the absorbance at 570 nm, allowing for the calculation of growth inhibition.
as §2

EGFR (ErbB1) T790M L858R = EGFR (ErbB1) T790M L858R (Homo sapiens (Human), UniProt P00533, L858R/T790M); assay: Z'-LYTE kinase inhibition assay, EGFR L858R/T790M; format: biochemical; settings: for inhibition at 0.0137 µM: read-out: % inhibition against EGFR L858R/T790M (Compound at 0.0137 μM); for IC50: read-out: IC50 against EGFR L858R/T790M; for inhibition at 1 µM: read-out: % inhibition against EGFR L858R/T790M (Compound at 1 μM)
Procedure, shortened: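 Z'-LYTE FRET peptide assay at 1% DMSO, 10-point 3-fold titrations; kinase/peptide mix in 50 mM HEPES pH 6.5, 0.01% BRIJ-35, 10 mM MgCl2, 1 mM EGTA, 0.02% NaN3. Kinase reaction ran 60 min at room temperature, followed by 60 min development and a fluorescence read. IC50 derived from the concentration series.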

HCC827 cells = assay: cells; settings: Homo sapiens, HCC827, 72 h, read-out: IC50 in HCC827 cells
Description: as §1, §2, §3

BTK = BTK (Homo sapiens (Human), UniProt Q06187); assay: Z'-LYTE kinase inhibition assay, BTK; format: biochemical; settings: for IC50: read-out: IC50 against BTK
Description: Inhibitory activities of compounds against BTK, EGFR and EGFR mutants (EGFR L858R, EGFR T790M, EGFR L858R/T790M), FGFR1, FGFR2, JAK2, JAK3 and KDR were measured by Invitrogen using Z'-LYTE® Method as briefly described in the following.
Test Compounds are screened in 1% DMSO (final) in the well. For 10 point titrations, 3-fold serial dilutions are conducted from the starting concentration. All ATP Solutions are diluted to a 4× working concentration in Kinase Buffer (50 mM HEPES pH 7.5, 0.01% BRIJ-35, 10 mM MgCl2, 1 mM EGTA). Peptide/Kinase Mixtures are diluted to a 2× working concentration in the appropriate Kinase Buffers as described below.
(v) Peptide/Kinase Mixtures for Measurement of BTK:
The 2×BTK/Tyr 01 mixture is prepared in 50 mM HEPES pH 7.5. 0.01% BRIJ-35, 10 mM MgCl2, 1 mM EGTA.
The mixture is then incubated for another 60-minute at room temperature for development reaction. Finally fluorescence is read by plate reader.
To determine IC50 of a compound against EGFR, EGFR mutant and other kinases, a series of concentrations of the compound were tested for the inhibition. […] The scale utilized in Table 4 is as follows: +++ less than 100 nM, ++ 100-500 nM and + greater than 500 nM.

Sequence of EGFR (ErbB1) (P00533 25-1210): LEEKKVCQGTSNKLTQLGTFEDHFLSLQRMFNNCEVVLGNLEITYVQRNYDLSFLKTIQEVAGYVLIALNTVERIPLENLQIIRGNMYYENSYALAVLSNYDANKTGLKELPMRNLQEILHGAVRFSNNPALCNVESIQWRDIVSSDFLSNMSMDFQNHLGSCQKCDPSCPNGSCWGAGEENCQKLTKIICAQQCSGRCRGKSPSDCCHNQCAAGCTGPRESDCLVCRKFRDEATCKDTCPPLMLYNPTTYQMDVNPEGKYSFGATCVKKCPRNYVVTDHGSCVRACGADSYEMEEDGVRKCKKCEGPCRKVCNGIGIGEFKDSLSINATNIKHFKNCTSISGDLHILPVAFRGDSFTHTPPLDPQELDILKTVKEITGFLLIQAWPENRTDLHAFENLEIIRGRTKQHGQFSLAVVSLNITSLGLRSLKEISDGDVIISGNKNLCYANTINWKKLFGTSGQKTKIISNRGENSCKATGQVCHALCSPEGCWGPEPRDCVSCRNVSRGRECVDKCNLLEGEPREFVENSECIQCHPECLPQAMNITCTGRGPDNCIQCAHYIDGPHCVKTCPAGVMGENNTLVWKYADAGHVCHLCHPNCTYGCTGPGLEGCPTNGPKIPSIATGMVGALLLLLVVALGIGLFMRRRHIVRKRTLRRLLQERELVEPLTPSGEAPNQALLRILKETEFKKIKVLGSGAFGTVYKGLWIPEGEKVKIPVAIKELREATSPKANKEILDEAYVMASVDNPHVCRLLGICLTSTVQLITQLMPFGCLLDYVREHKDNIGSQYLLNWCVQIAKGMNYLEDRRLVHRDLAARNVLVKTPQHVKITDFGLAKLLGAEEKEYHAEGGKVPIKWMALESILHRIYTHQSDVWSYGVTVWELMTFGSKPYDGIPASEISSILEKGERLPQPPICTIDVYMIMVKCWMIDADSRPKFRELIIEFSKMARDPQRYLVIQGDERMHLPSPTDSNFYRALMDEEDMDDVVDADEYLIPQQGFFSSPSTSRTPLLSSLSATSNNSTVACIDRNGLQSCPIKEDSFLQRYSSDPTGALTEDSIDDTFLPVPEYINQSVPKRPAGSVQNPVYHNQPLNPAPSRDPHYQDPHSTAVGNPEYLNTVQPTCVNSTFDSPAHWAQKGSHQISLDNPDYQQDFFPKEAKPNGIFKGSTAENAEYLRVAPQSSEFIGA
Sequence of EGFR (ErbB1) T790M L858R (P00533 25-1210 T790M/L858R): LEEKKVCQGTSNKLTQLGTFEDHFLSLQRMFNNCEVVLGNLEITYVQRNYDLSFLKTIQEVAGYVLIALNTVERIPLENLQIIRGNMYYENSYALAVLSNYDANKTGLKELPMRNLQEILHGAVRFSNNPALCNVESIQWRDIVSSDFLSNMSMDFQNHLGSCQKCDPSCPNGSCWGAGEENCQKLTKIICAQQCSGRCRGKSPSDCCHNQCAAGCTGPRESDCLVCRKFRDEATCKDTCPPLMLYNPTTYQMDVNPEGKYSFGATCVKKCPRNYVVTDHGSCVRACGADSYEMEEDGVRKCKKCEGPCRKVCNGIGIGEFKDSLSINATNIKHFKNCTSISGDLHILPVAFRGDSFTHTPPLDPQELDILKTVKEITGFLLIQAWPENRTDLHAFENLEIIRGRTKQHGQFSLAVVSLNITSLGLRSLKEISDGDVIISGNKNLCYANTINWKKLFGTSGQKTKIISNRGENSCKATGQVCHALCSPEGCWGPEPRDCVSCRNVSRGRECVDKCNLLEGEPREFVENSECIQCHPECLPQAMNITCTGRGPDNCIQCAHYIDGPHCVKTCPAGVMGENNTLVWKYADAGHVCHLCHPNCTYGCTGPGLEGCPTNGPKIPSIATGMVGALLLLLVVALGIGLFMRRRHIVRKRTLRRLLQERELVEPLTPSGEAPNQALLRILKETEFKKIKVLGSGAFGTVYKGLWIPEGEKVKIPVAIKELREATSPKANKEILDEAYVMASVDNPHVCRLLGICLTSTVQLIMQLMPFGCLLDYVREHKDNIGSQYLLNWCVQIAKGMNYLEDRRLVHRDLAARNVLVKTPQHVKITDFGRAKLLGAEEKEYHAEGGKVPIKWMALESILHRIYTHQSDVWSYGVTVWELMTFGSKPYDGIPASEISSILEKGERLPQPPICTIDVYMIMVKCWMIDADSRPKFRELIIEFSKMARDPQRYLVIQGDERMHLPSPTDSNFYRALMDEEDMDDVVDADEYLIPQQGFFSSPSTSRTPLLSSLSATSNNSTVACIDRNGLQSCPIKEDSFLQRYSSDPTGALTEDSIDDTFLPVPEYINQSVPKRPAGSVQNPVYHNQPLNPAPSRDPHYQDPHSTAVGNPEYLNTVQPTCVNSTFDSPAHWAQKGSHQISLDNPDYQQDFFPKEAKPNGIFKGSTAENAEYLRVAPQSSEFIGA
Sequence of BTK (Q06187 whole entry): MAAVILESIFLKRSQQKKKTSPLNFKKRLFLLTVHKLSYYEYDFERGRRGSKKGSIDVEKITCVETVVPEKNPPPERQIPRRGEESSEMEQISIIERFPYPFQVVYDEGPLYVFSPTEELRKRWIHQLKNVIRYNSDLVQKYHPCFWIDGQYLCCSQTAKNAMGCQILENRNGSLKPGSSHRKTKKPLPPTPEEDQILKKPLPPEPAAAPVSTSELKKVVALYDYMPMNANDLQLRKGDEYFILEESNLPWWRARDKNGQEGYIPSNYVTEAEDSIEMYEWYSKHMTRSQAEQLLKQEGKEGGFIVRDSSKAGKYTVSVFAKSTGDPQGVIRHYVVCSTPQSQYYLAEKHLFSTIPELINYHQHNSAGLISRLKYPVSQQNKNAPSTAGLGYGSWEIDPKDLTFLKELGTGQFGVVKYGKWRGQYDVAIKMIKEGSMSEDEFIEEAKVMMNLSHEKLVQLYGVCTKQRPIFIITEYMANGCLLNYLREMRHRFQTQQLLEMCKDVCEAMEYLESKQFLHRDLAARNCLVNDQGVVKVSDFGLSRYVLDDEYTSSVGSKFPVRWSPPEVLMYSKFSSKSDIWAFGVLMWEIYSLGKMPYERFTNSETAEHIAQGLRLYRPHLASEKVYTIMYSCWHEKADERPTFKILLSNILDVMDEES

inhibition at 0.041 µM (EGFR (ErbB1)) | IC50 (H1975 cells) | IC50 (A431 cells) | IC50 (H3255 cells) | inhibition at 0.0137 µM (EGFR (ErbB1) T790M L858R) | IC50 (EGFR (ErbB1) T790M L858R) | IC50 (HCC827 cells) | inhibition at 1 µM (EGFR (ErbB1)) | inhibition at 1 µM (EGFR (ErbB1) T790M L858R) | inhibition at 0.041 µM (BTK; compound at 0.041 μM, read-out: % inhibition against BTK) | SMILES | IC50 (EGFR (ErbB1)) | IC50 (BTK)
> 50% | < 100 nM | 100 to 500 nM | > 500 nM | > 50% | < 100 nM |  |  |  |  | C=CC(=O)Nc1cccc(-c2cccc3cnc(Nc4ccc(OC5CCN(CCO)CC5)cc4)nc23)c1 [Example C137, N-(3-(2-((4-((1-(2-hydroxyethyl)piperidin-4-yl)oxy)phenyl)amino)quinazolin-8-yl)phenyl)acrylamide] |  | 
 | 100 to 500 nM |  | > 500 nM | < 50% |  |  |  |  |  | C=CC(=O)Nc1cccc(-c2cccc3cnc(Nc4cc(F)c(N5CCN(CCOC)CC5)cc4F)nc23)c1 [Example C161, N-(3-(2-((2,5-difluoro-4-(4-(2-methoxyethyl)piperazin-1-yl)phenyl)amino)quinazolin-8-yl)phenyl)acrylamide] |  | 
> 50% | < 100 nM | 100 to 500 nM | 100 to 500 nM | > 50% | < 100 nM | < 100 nM |  |  |  | C=CC(=O)Nc1cccc(-c2cccc3cnc(Nc4ccc(OC5CCN(C)CC5)cc4F)nc23)c1 [Example C141, N-(3-(2-((2-fluoro-4-((1-methylpiperidin-4-yl)oxy)phenyl)amino)quinazolin-8-yl)phenyl)acrylamide] |  | 
< 50% | < 100 nM | 100 to 500 nM | 100 to 500 nM | > 50% |  |  |  |  |  | C=CC(=O)Nc1cccc(-c2cccc3cnc(Nc4ccc(N5CCN(CCOC)CC5)cc4)nc23)c1 [Example C152, N-(3-(2-((4-(4-(2-methoxyethyl)piperazin-1-yl)phenyl)amino)quinazolin-8-yl)phenyl)acrylamide] |  | 
> 50% | < 100 nM | < 100 nM | 100 to 500 nM | > 50% | < 100 nM |  |  |  |  | C=CC(=O)Nc1cccc(-c2cccc3cnc(Nc4ccc(N[C@H]5CCN(C)C5)cc4)nc23)c1 [Example C127, (S)-N-(3-(2-((4-((1-methylpyrrolidin-3-yl)amino)phenyl)amino)quinazolin-8-yl)phenyl)acrylamide] |  | 
> 50% | < 100 nM | < 100 nM | 100 to 500 nM | > 50% | < 100 nM |  |  |  |  | C=CC(=O)Nc1cccc(-c2cccc3cnc(Nc4ccc(NC5CCN(CCO)CC5)cc4)nc23)c1 [Example C139, N-(3-(2-((4-((1-(2-hydroxyethyl)piperidin-4-yl)amino)phenyl)amino)quinazolin-8-yl)phenyl)acrylamide] |  | 
> 50% | < 100 nM | < 100 nM |  |  |  | < 100 nM |  |  |  | C=CC(=O)Nc1cccc(-c2c(CO)ccc3cnc(Nc4ccc(N5CCN(C)CC5)cc4)nc23)c1 [Example C037, N-(3-(7-(hydroxymethyl)-2-((4-(4-methylpiperazin-1-yl)phenyl)amino)quinazolin-8-yl)phenyl)acrylamide] |  | 
> 50% | < 100 nM | > 500 nM | > 500 nM | > 50% | < 100 nM |  |  |  |  | C=CC(=O)Nc1cccc(-c2cccc3cnc(Nc4ccc(NC5CCN(C)CC5)cc4F)nc23)c1 [Example C140, N-(3-(2-((2-fluoro-4-((1-methylpiperidin-4-yl)amino)phenyl)amino)quinazolin-8-yl)phenyl)acrylamide] |  | 
 | 100 to 500 nM |  |  |  |  | 100 to 500 nM | > 50% | > 50% |  | c1ccc(-c2cccc3cnc(Nc4ccc(N5CCNCC5)cc4)nc23)cc1 [Example C030, 8-phenyl-N-(4-(piperazin-1-yl)phenyl)quinazolin-2-amine] |  | 
< 50% | < 100 nM | 100 to 500 nM | > 500 nM | > 50% | < 100 nM | < 100 nM |  |  |  | C=CC(=O)Nc1cccc(-c2cccc3cnc(Nc4ccc(N5CCN(CC(C)(C)O)CC5)cc4)nc23)c1 [Example C145, N-(3-(2-((4-(4-(2-hydroxy-2-methylpropyl)piperazin-1-yl)phenyl)amino)quinazolin-8-yl)phenyl)acrylamide] |  | 
> 50% | < 100 nM | < 100 nM | 100 to 500 nM | > 50% | < 100 nM |  |  |  | > 50% | C=CC(=O)Nc1cccc(-c2cccc3cnc(Nc4ccc(NC5CCN(C)CC5)cc4)nc23)c1 [Example C118, N-(3-(2-((4-((1-methylpiperidin-4-yl)amino)phenyl)amino)quinazolin-8-yl)phenyl)acrylamide] |  | 
 | 100 to 500 nM | 100 to 500 nM | > 500 nM |  |  | < 100 nM | > 50% | > 50% |  | C=CC(=O)Nc1cccc(-c2cccc3cnc(Nc4ccc(N5CCN(CC)CC5)cc4)nc23)c1 [Example C029, N-(3-(2-((4-(4-ethylpiperazin-1-yl)phenyl)amino)quinazolin-8-yl)phenyl)acrylamide] |  | 
 | 100 to 500 nM |  | > 500 nM |  |  |  |  |  |  | C=CC(=O)Nc1cccc(-c2cccc3cnc(Nc4cc(F)c(N5CCN(CCO)CC5)cc4F)nc23)c1 [Example C162, N-(3-(2-((2,5-difluoro-4-(4-(2-hydroxyethyl)piperazin-1-yl)phenyl)amino)quinazolin-8-yl)phenyl)acrylamide] |  | 

SMILES | inhibition at 0.041 µM (EGFR (ErbB1)) | IC50 (H1975 cells) | IC50 (A431 cells) | IC50 (H3255 cells) | inhibition at 0.0137 µM (EGFR (ErbB1) T790M L858R) | IC50 (EGFR (ErbB1) T790M L858R) | IC50 (HCC827 cells) | inhibition at 1 µM (EGFR (ErbB1)) | inhibition at 1 µM (EGFR (ErbB1) T790M L858R) | inhibition at 0.041 µM (BTK; compound at 0.041 μM, read-out: % inhibition against BTK) | IC50 (EGFR (ErbB1)) | IC50 (BTK)
C=CC(=O)Nc1cccc(-c2cccc3cnc(Nc4ccc(NC5CCN(C)CC5F)cc4)nc23)c1 (centres unmarked) [Example C105, N-(3-(2-((4-((3-fluoro-1-methylpiperidin-4-yl)amino)phenyl)amino)quinazolin-8-yl)phenyl)acrylamide] | < 50% | < 100 nM | 100 to 500 nM | < 100 nM |  | < 100 nM | < 100 nM |  |  |  | < 100 nM | < 100 nM
C=CC(=O)Nc1cccc(-c2cccc3cnc(Nc4ccc(N5CCN(C)CC5=O)cc4)nc23)c1 [Example C106, N-(3-(2-((4-(4-methyl-2-oxopiperazin-1-yl)phenyl)amino)quinazolin-8-yl)phenyl)acrylamide] |  | < 100 nM | < 100 nM | 100 to 500 nM |  | < 100 nM |  |  |  |  | > 500 nM | < 100 nM
C=CC(=O)Nc1cccc(-c2cccc3cnc(Nc4ccc(OC5CCN(C)CC5F)cc4)nc23)c1 (centres unmarked) [Example C079, N-(3-(2-((4-((3-fluoro-1-methylpiperidin-4-yl)oxy)phenyl)amino)quinazolin-8-yl)phenyl)acrylamide] | < 50% | < 100 nM | 100 to 500 nM | 100 to 500 nM |  | < 100 nM |  |  |  |  |  | < 100 nM
